Test results published in patent US9782379B2, “Use of protectin DX for the stimulation of muscular IL-6 secretion” (Universite Laval, priority 2013, dated 2017).

System: lean C57BL/6J mice
Test: paired 6 h lipid infusion and 4 mU/kg hyperinsulinemic-euglycemic clamp
Assay type: in vivo
Description: 14-week old male C57BL/6J mice from Jackson Labs were used for the first paired lipid infusion hyperinsulinemic-euglycemic clamp study. These mice were placed on a standard laboratory chow diet with free access to food and water and kept in a 12 h light 12 h dark cycle at the Laval University hospital research centre animal facility. Mice were randomly assigned to saline, lipid or lipid+PDX groups. Five days prior to the experiment, mice were anesthetized and PE-10 catheters (Harvard Apparatus, QC, Canada) were inserted into the left common carotid artery and the right jugular vein for blood sampling and infusions respectively. Mice were fasted for 5 h leading up to the protocol. Immediately prior to the start of the lipid infusion, PDX (1 ug) or an equal volume of vehicle was administered via the jugular catheter to each group. Mice were then infused for 6 h with saline (5ml·kg^−1·h^−1) or lipid (20% intralipid emulsion (Baxter, ON, Canada) 5ml·kg^−1·h^−1 with 20 IU·ml^−1 heparin (LEO pharma, ON, Canada)). 2.5h into the infusion PDX (1 ug) or vehicle was again administered to the appropriate groups and the HIE clamp was initiated as previously described ^8,27. The clamp protocol consisted of a 90 min tracer equilibration period followed by a 120 min experimental period. A 5-μCi bolus of [3-^3H]glucose was given at the start of the tracer equilibration period followed by a 0.05-μCi/min infusion for 90 min. Blood samples were drawn for the assessment of glycemia, insulin and glucose turnover levels. Following the 90 min tracer equilibration period the clamp began with a primed-continuous infusion of human insulin (16 mU/kg bolus followed by 4 mU·kg^−1·min^−1, Humulin R; Eli Lilly, Indianapolis, Ind.). The [3-^3H]glucose infusion was increased to 0.2 μCi/min for the remainder of the experiment. Euglycemia (6.0-7.0 mM) was maintained during clamps by infusing 20% dextrose as necessary. Blood samples were taken continuously to determine glucose specific activity as well as insulin concentrations. Mice received saline-washed erythrocytes from donor mice throughout the experimental period (5-6 μl·min-1) to prevent a fall of ≧5% hematocrit. HGP and Rd were determined using Mari's non-steady-state equations for a two-compartmental model^28.
Snap frozen gastrocnemius muscle and liver from mice were pulverized in liquid nitrogen then lysed overnight at 4° C. in the lysis buffer described for the C2C12 myotube experiments. Immunoblotting of myotube, macrophage, liver and muscle lysates was then performed as previously described^5. Briefly, 50 ug of protein was loaded onto a 7.5% acrylamide gel, subjected to SDS-PAGE then transferred onto nitrocellulose membranes. Membranes were then blocked and probed with the appropriate antibodies. Antibodies for p-Akt ser473, p-JNK thr183/tyr185, JNK, p-AMPK thr172, AMPK, p-STAT-3 ser727 and STAT-3 were obtained from Cell Signaling Technology (MA, USA). Antibodies for total Akt and iNOS were from Santa Cruz Biotechnology (CA, USA) and BD Transduction Laboratories™ (Canada) respectively.
RNA was extracted from C2C12 myotubes using an RNeasy® mini kit from QIAGEN. RNA from homogenized liver tissue was extracted using an RNeasy® fibrous tissue mini kit from QIAGEN. RNA was then reverse transcribed to cDNA using the high-capacity cDNA reverse transcription kit from applied biosystems. Real-time PCR for Ppargc1, Pck1, G6Pc, and GAPDH was then performed using Taqman assay on demand probes and primers from Applied Biosystems in a CFX96 real-time system from BIO-RAD. The relative expression of genes of interest was then determined by normalization to the housekeeping gene GAPDH using the comparative CT method for relative gene expression^30.
Chemokines and cytokines were quantified in macrophage media, or mouse plasma using the MILLIPLEX™ MAP mouse cytokine/chemokine kit (Millipore Corporation, MA, USA). Nitrite accumulation in media was determined by Greiss assay as previously described^25. […]

CC/C=C\C[C@H](O)/C=C/C=C\C=C\[C@@H](O)C/C=C\C/C=C\CCC(=O)O [PDX, 10S,17S-dihydroxy-docosa-4Z,7Z,11E,13Z,15E,19Z-hexaeonic acid]
phosphorylation of AMPK on Thr172 in muscle (P<0.05): robust phosphorylation
phosphorylation of hepatic STAT-3 on Ser727 (P<0.05): enhancing
pre-clamp glycemia (PDX 1 ug i.v. immediately prior to and 2.5 h into 6 h lipid infusion, vs saline and lipid-treated animals, P<0.01): significant lowering
peripheral insulin action (PDX 1 ug i.v. x2, lipid-infused): partial restoration
lipid-induced decline in whole-body insulin sensitivity (glucose infusion rate, GIR) (PDX 1 ug i.v. x2, lipid-infused, P<0.001): completely prevented the lipid-induced decline
hepatic insulin action (PDX 1 ug i.v. x2, lipid-infused, significantly greater than saline-infused mice, P<0.05): markedly increased
adiponectin in plasma (both lipid-infused groups (with and without PDX)): similarly reduced levels
IL-6 protein expression in skeletal muscle (expression profile compared with plasma IL-6): closely resembled that of plasma
phosphorylation of Akt on Ser473 (liver and skeletal muscle, immunoblot): confirmed the improved insulin action
JNK activation (phosphorylation on Thr183/Tyr185) (liver, immunoblot): prevents
liver IL-6 levels (mouse, in vivo): no significant effect
suppression of PGC-1α and PEPCK in liver (mRNA) (mouse, in vivo): enhancing
lipid-mediated induction of iNOS (muscle and liver, immunoblot): represses
lipid-induced secretion of cytokines TNFα, IFNγ, IL-1β, IL-2 and IL-17 (plasma, lipid-infused): strongly suppresses
lipid-induced secretion of proinflammatory chemokines CCL2/MCP-1 and CCL5/RANTES (plasma, lipid-infused): strongly suppresses
increase in IL-6 beyond that induced by lipid infusion alone (plasma, P<0.001): ~7 fold
suppression of G6Pase in liver (mRNA) (tendency, P=0.08): did not reach significance
